Reference: patent US10815275B2, “Antimicrobial peptoids with improved selectivity and use thereof” (priority 2018, dated 2020)
≈ marks a conversion by molar mass, not a printed value. Like-named read-outs stand apart in the source and are kept apart here. Non-standard residues stand in square brackets, D forms with d. Residues, ends and D or L forms follow the SMILES beside them. Nspe = C[C@H](NCC(=O)O)c1ccccc1; Nphe = O=C(O)CNCc1ccccc1; Nlys = NCCCCNCC(=O)O

Key:
red blood cells = assay: Hemolytic activity on red blood cells; type: cell-based, mouse
Description: In order to identify, through red blood cell hemolytic activity in mice, whether the peptoids synthesized in Preparation Example 1 are cytotoxic, red blood cells isolated from 10 mL of mouse blood were washed three times with phosphate-buffered saline (PBS, mixed solution of 35 mM phosphate buffer/150 mM NaCl, pH 7.4), and then centrifuged at a centrifugal force of 1,000 ×g for 10 minutes. A 10% (v/v) red blood cell solution diluted with PBS was dispensed into a 96-well microtiter plate at 150 μL each, and then a peptide solution was added at 50 μL each. Thereafter, the 96-well microtiter plate was incubated at a temperature of 37° C. for 1 hour.
The incubated 96-well microtiter plate was centrifuged at a centrifugal force of 1,000×g for 5 minutes. Thereafter, supernatant was taken at 100 μL each and transferred to a new 96-well microtiter plate. Then, absorbance at a wavelength of 540 nm was measured (Table 6).
In this case, a value obtained in a case of being treated with 0.1% (v/v) Triton X-100 was set as 100% hemolysis, and hemolytic activity (degree of cell destruction) of the peptoids was calculated using the following Equation 1. In the Equation 1, A is absorbance of the peptoid solution at a wavelength of 540 nm, B is absorbance of 0.1% Triton X-100 at a wavelength of 540 nm, and C is absorbance of the PBS solution at a wavelength of 540 nm. In this case, Peptoid NO. […] Degree of cell destruction (% hemolysis)=(A−C)/(B−C)[…] [Equation 1]
In Table 6, HD10 means a peptoid concentration which causes 10% hemolysis of red blood cells, and HD50 means a peptoid concentration which causes 50% hemolysis of red blood cells. In addition, Hmax is a hemolysis rate (%) at 200 μM which is the highest peptoid concentration used in the experiment.
Hemolytic activity of Peptoid NOS. 1, 18 to 23, and the peptide Pexiganan was measured in the same manner as in Experimental Example 2.

E. coli = assay: Selectivity analysis, HD10 divided by MIC for E. coli; conditions: HD10 of Table 6 divided by MIC for E. coli ATCC25922
Description: In order to identify changes in selectivity depending on alteration of degree of folding in helical structure of peptoids, selectivity of each peptoid was calculated using the resultant values measured in the Experimental Examples 1 and 2. The selectivity was obtained by dividing the HD10 value by the minimum inhibitory concentration for E. coli (Table 8).

[1] = test system: S. aureus strain KCTC1621; type: cell-based; conditions: for MBC S. aureus: KCTC1621; for MIC S. aureus: KCTC1621, 18 h
Description: (§1) In order to measure antimicrobial activity of the peptoids, Gram-positive S. aureus strain KCTC1621, or Gram-negative E. coli strain ATCC25922 was treated with the peptoids prepared in Preparation Example 1, and minimum inhibitory concentrations were measured. Peptoid NOS. 1 and 2 are already known peptoids and were used for the purpose of making a comparison with novel peptoids in terms of antimicrobial activity.
(§2) Specifically, S. aureus strain KCTC1621 or E. coli strain ATCC25922 was inoculated into Mueller Hinton Broth (MHB2) liquid medium on which cations were adjusted, cultured at a temperature of 37° C. for 18 hours, and then subcultured for 4 hours. Thereafter, the strains were diluted with MHB2 liquid medium containing 0.2% bovine serum albumin and 0.01% acetic acid so that each bacterial number was 2×10^5 colony-forming units (CFU) per 1 mL, and dispensed into 96-well microtiter plates at 100 μL each. A peptoid stock which is 40-fold more concentrated than a concentration to be tested was added to each well at 2.5 μL or lower so that the peptoid stock was 2-fold serially diluted using sterile water. Thereafter, the plates were incubated at a temperature of 37° C. for 18 hours.
(§3) Thereafter, absorbance was measured at a wavelength of 600 nm using a microplate reader (Bio-Rad). The lowest peptoid concentration that completely suppresses growth of microorganisms was measured by a minimum inhibitory concentration (MIC) and a minimum bactericidal concentration (MBC), and the measurement results are shown in Table 5 below. Each of the MIC values was calculated as an average value of numerical values obtained through three independent experiments.

E. coli strain ATCC25922 = type: cell-based; conditions: for MBC E. coli: ATCC25922; for MIC E. coli: ATCC25922, 18 h
Description: as §1, §2, §3

[2] = test system: S. epidermidis (ET-024 MRSA); assay: MIC in multidrug-resistant bacteria panel, modified microdilution; type: cell-based; conditions: overnight, 37° C.
Description: (§4) Minimum inhibitory concentrations of the prepared peptoids for multidrug-resistant bacteria were measured using a modified microdilution method in Difco Mueller Hinton medium, and tests were done on a panel of bacterial pathogens which have resistance and tolerance against common antibiotics.
(§5) Briefly, a peptoid concentrate, which is 10-fold more concentrated than a final concentration, was serially diluted with a medium containing 0.2% bovine serum albumin and 0.01% acetic acid. 10 μL of the 10-fold concentrated peptoid concentrate and 90 μL of Muller Hinton medium were added to each well of a 96-well polypropylene microtitre plate. Bacteria were added to the plate so that a final concentration thereof was 2×10^5 CFU/mL, and then incubated overnight at a temperature of 37° C. The minimum inhibitory concentration was defined as a concentration at which no bacterial growth is observed.

E. coli (63103 ESBL) = assay: as above; type: cell-based; conditions: overnight, 37° C.
Description: as §4, §5

P. aeruginosa (PA01) = assay: as above; type: cell-based; conditions: overnight, 37° C.
Description: as §4, §5

S. aureus (ATCC25923) = assay: as above; type: cell-based; conditions: overnight, 37° C.
Description: as §4, §5

E. coli strain DH5α = assay: Antimicrobial activity of peptoids with altered cationic residues, MIC; type: cell-based; conditions: LB medium, 18 h
Description: (§6) In order to measure antimicrobial activity of the peptoids, Gram-positive B. subtilis or Gram-negative E. coli strain DH5α was treated with Peptoid NOS. 1, 18 to 23, and the peptide Pexiganan, and minimum inhibitory concentrations were measured. Peptoid NOS. 1 and 2, and the peptide Pexiganan are already known antimicrobial peptoids and peptides, and were used for the purpose of making a comparison with novel peptoids in terms of antimicrobial activity.
(§7) Specifically, B. subtilis or E. coli DHS a was inoculated into LB liquid medium, and cultured at a temperature of 37° C. for 18 hours. Thereafter, the bacteria were diluted with LB medium so that each bacterial number was 2×10^5 colony-forming units (CFU) per 1 mL, and dispensed into 96-well microtiter plates at 100 μL each. The peptoid, which is 2-fold serially diluted using sterile water, was added to each well at 100 μL each. The plates were incubated at a temperature of 37° C. for 18 hours.
as §3, with “(MIC),” for “(MIC) and a minimum bactericidal concentration (MBC),”, “12” for “5”, “minimum inhibitory concentration” for “MIC”

B. subtilis = type: cell-based; conditions: 18 h
Description: as §6, §7
as §3, with “(MIC),” for “(MIC) and a minimum bactericidal concentration (MBC),”, “12” for “5”, “minimum inhibitory concentration” for “MIC”

in vitro = type: cell-based
Description: In order to determine whether the peptoids were cytotoxic against human cell lines, […] cell line (Korean Cell Line Bank) which is a human lung cell line was cultured in a DMEM (Dulbecco's modified Eagle's medium) culture solution containing 10% (v/v) fetal bovine serum (FBS) at 5% CO2 and a temperature of 37° C. 100 μL of DMEM medium was dispensed into each well of a 96-well microtiter plate so that the number of cells was 1.3×10^4, and then incubated overnight at a temperature of 37° C. in a 5% CO2 incubator. In this case, a DMEM medium was used as a negative control. Thereafter, the peptoid which is 2-fold serially diluted using sterile water was added to each well, and then incubated for 24 hours.
After incubation, 20 μL of an MTS solution [3-(4,5-dimethylthiazol-2-yl)-5-(3-carboxymethoxyphenyl)-2-(4-sulfophenyl)-2H-tetrazolium, inner salt; MTS] was added thereto and incubated at a temperature of 37° C. for 4 hours. Thereafter, % survival was calculated by measuring absorbance at a wavelength of 490 nm using an ELISA reader. The % survival was calculated as a percentage obtained by dividing the absorbance value for a well-treated with the peptoid by the absorbance value for a well containing control cells which had not been treated with the peptoid.

SMILES: NCCCCNCC(=O)N(CC(=O)N(CC(=O)N(CCCCN)CC(=O)N(CC(=O)N(CC(=O)N(CCCCN)CC(=O)N(CC(=O)N(CC(=O)N(CCCCN)CC(=O)N(CC(=O)N(CC(N)=O)Cc1ccccc1)Cc1ccccc1)Cc1ccccc1)Cc1ccccc1)Cc1ccccc1)Cc1ccccc1)Cc1ccccc1)Cc1ccccc1 [compound 2] (H-[Nlys][Nphe][Nphe][Nlys][Nphe][Nphe][Nlys][Nphe][Nphe][Nlys][Nphe][Nphe]-NH2)
- HD50 (red blood cells): >200/>200
- Selectivity [HD10/MIC (E. coli)] (E. coli): >8.0
- MBC S. aureus [1]: 6.3 µM (≈ 10.8 µg/mL)
- MIC S. aureus [1]: 3.1 µM (≈ 5.29 µg/mL)
- MBC E. coli (E. coli strain ATCC25922): >25 µM
- MIC E. coli (E. coli strain ATCC25922): 25 µM (≈ 42.7 µg/mL)
- minimum inhibitory concentration S. epidermidis (ET-024 MRSA) [2]: <0.8 to 0.8
- minimum inhibitory concentration E. coli (63103 ESBL) (E. coli (63103 ESBL)): 12.5
- minimum inhibitory concentration P. aeruginosa (PA01) (P. aeruginosa (PA01)): 6.3

SMILES: C[C@@H](c1ccccc1)N(CC(N)=O)C(=O)CN(C(=O)CN(CCCCN)C(=O)CN(Cc1ccccc1)C(=O)CN(Cc1ccccc1)C(=O)CN(CCCCN)C(=O)CN(Cc1ccccc1)C(=O)CN(Cc1ccccc1)C(=O)CN(CCCCN)C(=O)CN(C(=O)CN(C(=O)CNCCCCN)[C@@H](C)c1ccccc1)[C@@H](C)c1ccccc1)[C@@H](C)c1ccccc1 [compound 11]
- HD10 (red blood cells): 61.6
- HD50 (red blood cells): > 200
- Selectivity [HD10/MIC (E. coli)] (E. coli): 4.9
- MBC S. aureus [1]: 6.3 µM (≈ 11.1 µg/mL)
- MIC S. aureus [1]: 3.1 µM (≈ 5.47 µg/mL)
- MBC E. coli (E. coli strain ATCC25922): 25 µM (≈ 44.1 µg/mL)
- MIC E. coli (E. coli strain ATCC25922): 12.5 µM (≈ 22 µg/mL)
- minimum inhibitory concentration S. epidermidis (ET-024 MRSA) [2]: <0.8 to 0.8
- minimum inhibitory concentration S. aureus (ATCC25923) (S. aureus (ATCC25923)): 3.1
- minimum inhibitory concentration E. coli (63103 ESBL) (E. coli (63103 ESBL)): 6.3
- minimum inhibitory concentration P. aeruginosa (PA01) (P. aeruginosa (PA01)): 6.3

SMILES: C[C@@H](c1ccccc1)N(CC(=O)N(CCCCN)CC(=O)N(CC(=O)N(CC(=O)N(CCCCN)CC(=O)N(CC(=O)N(CC(=O)N(CCCCN)CC(=O)N(CC(=O)N(CC(N)=O)Cc1ccccc1)Cc1ccccc1)Cc1ccccc1)Cc1ccccc1)Cc1ccccc1)Cc1ccccc1)C(=O)CN(C(=O)CNCCCCN)[C@@H](C)c1ccccc1 [compound 17] (H-[Nlys][Nspe][Nspe][Nlys][Nphe][Nphe][Nlys][Nphe][Nphe][Nlys][Nphe][Nphe]-NH2)
- HD50 (red blood cells): > 200
- Selectivity [HD10/MIC (E. coli)] (E. coli): 4.8
- MBC S. aureus [1]: 3.1 µM (≈ 5.38 µg/mL)
- MIC S. aureus [1]: 3.1 µM (≈ 5.38 µg/mL)
- MBC E. coli (E. coli strain ATCC25922): 25 µM (≈ 43.4 µg/mL)
- MIC E. coli (E. coli strain ATCC25922): 25 µM (≈ 43.4 µg/mL)
- minimum inhibitory concentration S. epidermidis (ET-024 MRSA) [2]: <0.8 to 0.8
- minimum inhibitory concentration P. aeruginosa (PA01) (P. aeruginosa (PA01)): 6.3

SMILES: C[C@@H](c1ccccc1)N(CC(N)=O)C(=O)CN(C(=O)CN(CCCCN)C(=O)CN(C(=O)CN(C(=O)CN(CCCCN)C(=O)CN(C(=O)CN(C(=O)CNCCCCN)[C@@H](C)c1ccccc1)[C@@H](C)c1ccccc1)[C@@H](C)c1ccccc1)[C@@H](C)c1ccccc1)[C@@H](C)c1ccccc1 [compound 18] (H-[Nlys][Nspe][Nspe][Nlys][Nspe][Nspe][Nlys][Nspe][Nspe]-NH2)
- MIC E. coli (E. coli strain DH5α): 3.1 µM (≈ 4.24 µg/mL)
- MIC B. subtilis (B. subtilis): 1.6 µM (≈ 2.19 µg/mL)
- CC50 at 24 h (in vitro; human): 40 µM

SMILES: C[C@@H](c1ccc(F)cc1)N(CC(N)=O)C(=O)CN(C(=O)CN(CCCCN)C(=O)CN(C(=O)CN(C(=O)CN(CCCCN)C(=O)CN(C(=O)CN(C(=O)CN(CCCCN)C(=O)CN(C(=O)CN(C(=O)CNCCCCN)[C@@H](C)c1ccc(F)cc1)[C@@H](C)c1ccc(F)cc1)[C@@H](C)c1ccc(F)cc1)[C@@H](C)c1ccc(F)cc1)[C@@H](C)c1ccc(F)cc1)[C@@H](C)c1ccc(F)cc1)[C@@H](C)c1ccc(F)cc1 [compound 21]
- MIC B. subtilis (B. subtilis): 0.4 µM (≈ 0.785 µg/mL)
- CC50 at 24 h (in vitro; human): 9.5 µM
- HD10 (red blood cells): <6.25/<6.25
- HD50 (red blood cells): <6.25/<6.25

SMILES: C[C@@H](c1ccccc1)N(CC(=O)N(CCCCN)CC(=O)N(CC(=O)N(CC(=O)N(CCCCN)CC(=O)N(CC(=O)N(CC(=O)N(CCCCN)CC(=O)N(CC(=O)N(CC(=O)N(CCCCN)CC(N)=O)[C@@H](C)c1ccccc1)[C@@H](C)c1ccccc1)[C@@H](C)c1ccccc1)[C@@H](C)c1ccccc1)[C@@H](C)c1ccccc1)[C@@H](C)c1ccccc1)C(=O)CN(C(=O)CNCCCCN)[C@@H](C)c1ccccc1 [compound 22] (H-[Nlys][Nspe][Nspe][Nlys][Nspe][Nspe][Nlys][Nspe][Nspe][Nlys][Nspe][Nspe][Nlys]-NH2)
- MIC B. subtilis (B. subtilis): 0.4 µM (≈ 0.779 µg/mL)
- CC50 at 24 h (in vitro; concentration indicating 50% survival, 24 h, MTS, read-out: LC50): 10 µM
- HD10 (red blood cells): 19.5

SMILES: C[C@@H](c1ccccc1)N(CC(=O)N(CCCCN)CC(=O)N(CC(=O)N(CC(=O)N(CCCCN)CC(=O)N(CC(=O)N(CC(=O)N(CCCCN)CC(N)=O)[C@@H](C)c1ccccc1)[C@@H](C)c1ccccc1)[C@@H](C)c1ccccc1)[C@@H](C)c1ccccc1)C(=O)CN(C(=O)CNCCCCN)[C@@H](C)c1ccccc1 [compound 23] (H-[Nlys][Nspe][Nspe][Nlys][Nspe][Nspe][Nlys][Nspe][Nspe][Nlys]-NH2)
- MIC E. coli (E. coli strain DH5α): 1.6 µM (≈ 2.4 µg/mL)
- MIC B. subtilis (B. subtilis): 0.8 µM (≈ 1.2 µg/mL)
- CC50 at 24 h (in vitro; human): 80.5 µM
